From PubChem BioAssay AID248 (DTP/NCI, 2004)
Several values for one entry are separate records, joined by “and”; a condition that tells them apart may be missing. Equal entries are not always repeated. Toxic doses and inconclusive results are not listed. No stated cut-off is given here; in the data, active means T/C of 150% or more; inactive means T/C below 125%.

Test system: L1210 leukemia ip in BDF1 mice, survival T/C
Assay: NCI In Vivo Anticancer Drug Screen. Data for tumor model L1210 Leukemia (intraperitoneal) in B6D2F1 (BDF1) mice
Conditions: endpoint: mean survival time, higher = longer survival
Summary of the method: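 Read-out is survival time, reported as the treated-group measurement over the vehicle-control measurement.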

[1] = dose: 100.0 mg/kg/injection, schedule: Q01DX001 (ip), vehicle: saline
[2] = dose: 200.0 mg/kg/injection, schedule: Q01DX001 (ip), vehicle: saline
[3] = dose: 400.0 mg/kg/injection, schedule: Q01DX001 (ip), vehicle: saline
[4] = dose: 50.0 mg/kg/injection, schedule: Q01DX009 (ip), vehicle: saline with Tween-80
[5] = dose: 100.0 mg/kg/injection, schedule: Q01DX009 (ip), vehicle: saline with Tween-80
[6] = dose: 100.0 mg/kg/injection, schedule: Q04DX003 (ip), vehicle: saline with Tween-80
[7] = dose: 200.0 mg/kg/injection, schedule: Q04DX003 (ip), vehicle: saline with Tween-80
[8] = dose: 400.0 mg/kg/injection, schedule: Q04DX003 (ip), vehicle: saline with Tween-80

Measured: T/C

CCC1(O)CC(OC2CC(N(C)C)C(OC3CC4OC5CC(=O)C(C)OC5OC4C(C)O3)C(C)O2)c2c(cc3c(c2O)C(=O)c2c(O)ccc(O)c2C3=O)C1C(=O)OC (configuration not stated)
inactive: dose: 0.01 mg/kg/injection, schedule: Q01DX Z (ip), vehicle: saline 108 % of control and 88 % of control | dose: 0.16 mg/kg/injection, schedule: Q01DX Z (ip), vehicle: saline 98 % of control and 88 % of control | dose: 0.18 mg/kg/injection, schedule: Q03HX008 (ip), vehicle: saline with Tween-80 94 % of control and 90 % of control | dose: 0.18 mg/kg/injection, schedule: Q03HX024 (ip), vehicle: saline with Tween-80 93 % of control and 102 % of control | dose: 0.25 mg/kg/injection, schedule: Q01DX Z (ip), vehicle: other 103 % of control | dose: 0.25 mg/kg/injection, schedule: Q01DX Z (ip), vehicle: saline 94 % of control and 105 % of control | dose: 0.37 mg/kg/injection, schedule: Q03HX008 (ip), vehicle: saline with Tween-80 94 % of control and 100 % of control | dose: 0.37 mg/kg/injection, schedule: Q03HX024 (ip), vehicle: saline with Tween-80 99 % of control and 102 % of control | dose: 0.5 mg/kg/injection, schedule: Q01DX Z (ip), vehicle: other 112 % of control | dose: 0.5 mg/kg/injection, schedule: Q01DX Z (ip), vehicle: saline 113 % of control and 120 % of control | dose: 0.75 mg/kg/injection, schedule: Q01DX009 (ip), vehicle: saline with Tween-80 98 % of control | dose: 0.75 mg/kg/injection, schedule: Q03HX008 (ip), vehicle: saline with Tween-80 105 % of control and 109 % of control | dose: 0.75 mg/kg/injection, schedule: Q03HX024 (ip), vehicle: saline with Tween-80 105 % of control and 107 % of control | dose: 1.0 mg/kg/injection, schedule: Q01DX015 (ip), vehicle: saline 123 % of control | dose: 1.0 mg/kg/injection, schedule: Q01DX Z (ip), vehicle: other 123 % of control | dose: 1.1 mg/kg/injection, schedule: Q04DX003 (ip), vehicle: saline 107 % of control | dose: 1.25 mg/kg/injection, schedule: Q04DX003 (ip), vehicle: saline 106 % of control | dose: 1.5 mg/kg/injection, schedule: Q01DX001 (ip), vehicle: saline with Tween-80 93 % of control and 95 % of control | dose: 1.5 mg/kg/injection, schedule: Q01DX009 (ip), vehicle: saline with Tween-80 111 % of control | dose: 1.5 mg/kg/injection, schedule: Q01DX Z (ip), vehicle: other 120 % of control | dose: 1.5 mg/kg/injection, schedule: Q03HX008 (ip), vehicle: saline with Tween-80 114 % of control | dose: 1.5 mg/kg/injection, schedule: Q03HX024 (ip), vehicle: saline with Tween-80 98 % of control and 106 % of control | dose: 1.5 mg/kg/injection, schedule: Q04DX003 (ip), vehicle: saline with Tween-80 102 % of control and 105 % of control | dose: 1.7 mg/kg/injection, schedule: Q04DX003 (ip), vehicle: saline 110 % of control | dose: 1.8 mg/kg/injection, schedule: Q01DX015 (ip), vehicle: saline 91 % of control | dose: 2.0 mg/kg/injection, schedule: Q01DX Z (ip), vehicle: other 116 % of control | dose: 2.5 mg/kg/injection, schedule: Q04DX003 (ip), vehicle: saline 111 % of control | dose: 2.6 mg/kg/injection, schedule: Q04DX003 (ip), vehicle: saline 110 % of control | dose: 2.7 mg/kg/injection, schedule: Q01DX001 (ip), vehicle: saline 104 % of control and 120 % of control | dose: 3.0 mg/kg/injection, schedule: Q01DX001 (ip), vehicle: saline with Tween-80 93 % of control and 99 % of control | dose: 3.0 mg/kg/injection, schedule: Q01DX009 (ip), vehicle: saline with Tween-80 100 % of control | dose: 3.0 mg/kg/injection, schedule: Q04DX003 (ip), vehicle: saline with Tween-80 107 % of control and 108 % of control | dose: 4.0 mg/kg/injection, schedule: Q01DX001 (ip), vehicle: saline 114 % of control | dose: 4.0 mg/kg/injection, schedule: Q04DX003 (ip), vehicle: saline 124 % of control | dose: 6.0 mg/kg/injection, schedule: Q01DX001 (ip), vehicle: saline with Tween-80 99 % of control and 106 % of control | dose: 6.0 mg/kg/injection, schedule: Q01DX001 (ip), vehicle: saline 119 % of control | dose: 6.0 mg/kg/injection, schedule: Q04DX003 (ip), vehicle: saline with Tween-80 113 % of control and 115 % of control and 117 % of control | dose: 9.0 mg/kg/injection, schedule: Q01DX001 (ip), vehicle: saline 110 % of control | dose: 9.0 mg/kg/injection, schedule: Q04DX003 (ip), vehicle: saline with Tween-80 97 % of control | dose: 10.0 mg/kg/injection, schedule: Q04DX003 (ip), vehicle: saline 87 % of control | dose: 12.0 mg/kg/injection, schedule: Q01DX001 (ip), vehicle: saline with Tween-80 110 % of control and 122 % of control | dose: 12.0 mg/kg/injection, schedule: Q04DX003 (ip), vehicle: saline with Tween-80 105 % of control

CCCCCCCCCCCCNC(=S)NCCCCCCCCCCCC
inactive: dose: 100.0 mg/kg/injection, schedule: Q04DX003 (ip), vehicle: Klucel (hydroxypropylcellulose) (HPC) 92 % of control | dose: 200.0 mg/kg/injection, schedule: Q04DX003 (ip), vehicle: Klucel (hydroxypropylcellulose) (HPC) 92 % of control | dose: 400.0 mg/kg/injection, schedule: Q04DX003 (ip), vehicle: Klucel (hydroxypropylcellulose) (HPC) 89 % of control

Cc1ccc(NC(=O)NNC(=O)CCCC(=O)NNC(=O)Nc2ccc(C)cc2)cc1
inactive: dose: 50.0 mg/kg/injection, schedule: Q01DX001 (ip), vehicle: saline 96 % of control | [1] 102 % of control | [2] 96 % of control | [3] 96 % of control

CC12CC3CC(Br)(C1)CC(C#N)(C3)C2 (configuration not stated)
inactive: dose: 6.0 mg/kg/injection, schedule: Q04DX002 (ip), vehicle: Klucel (hydroxypropylcellulose) (HPC) 109 % of control | dose: 12.0 mg/kg/injection, schedule: Q04DX002 (ip), vehicle: Klucel (hydroxypropylcellulose) (HPC) 98 % of control | dose: 25.0 mg/kg/injection, schedule: Q04DX002 (ip), vehicle: Klucel (hydroxypropylcellulose) (HPC) 94 % of control

CCCCCCCCCCCCSCO
inactive: dose: 25.0 mg/kg/injection, schedule: Q01DX009 (ip), vehicle: saline with Tween-80 118 % of control | [4] 105 % of control | [5] 101 % of control and 91 % of control | [6] 105 % of control | dose: 200.0 mg/kg/injection, schedule: Q01DX009 (ip), vehicle: saline with Tween-80 90 % of control | [7] 96 % of control

CC(=O)C(c1ccccc1)(c1ccccc1)c1ccccc1
inactive: [6] 96 % of control | [7] 93 % of control | [8] 91 % of control

Cc1ccc(Cl)c(Br)c1
inactive: [1] 94 % of control | [2] 96 % of control | [3] 107 % of control

CCN(CCO)c1ccc(N)cc1C
inactive: dose: 0.5 mg/kg/injection, schedule: Q04DX003 (ip), vehicle: saline 97 % of control | dose: 1.0 mg/kg/injection, schedule: Q04DX003 (ip), vehicle: saline 95 % of control | dose: 2.0 mg/kg/injection, schedule: Q04DX003 (ip), vehicle: saline 97 % of control | dose: 6.25 mg/kg/injection, schedule: Q04DX003 (ip), vehicle: saline 88 % of control | dose: 12.5 mg/kg/injection, schedule: Q04DX003 (ip), vehicle: saline 102 % of control

CN(CCCl)C1c2ccccc2-c2ccccc21
inactive: dose: 25.0 mg/kg/injection, schedule: Q04DX002 (ip), vehicle: saline 100 % of control | dose: 50.0 mg/kg/injection, schedule: Q04DX002 (ip), vehicle: saline 100 % of control | dose: 100.0 mg/kg/injection, schedule: Q04DX002 (ip), vehicle: saline 106 % of control and 117 % of control

O=C(Nc1ccc(Cl)c(Cl)c1)O/N=C/c1ccccn1
inactive: [4] 96 % of control | [5] 91 % of control and 92 % of control | [6] 95 % of control | [7] 90 % of control | dose: 400.0 mg/kg/injection, schedule: Q01DX009 (ip), vehicle: saline with Tween-80 91 % of control | [8] 91 % of control

S=C([S-])N1CCOCC1.S=C([S-])N1CCOCC1.[Zn]
inactive: dose: 4.68 mg/kg/injection, schedule: Q01DX009 (ip), vehicle: saline 90 % of control | dose: 9.37 mg/kg/injection, schedule: Q01DX009 (ip), vehicle: saline 86 % of control | dose: 18.75 mg/kg/injection, schedule: Q01DX009 (ip), vehicle: saline 91 % of control | dose: 18.75 mg/kg/injection, schedule: Q04DX003 (ip), vehicle: saline 100 % of control | dose: 37.5 mg/kg/injection, schedule: Q04DX003 (ip), vehicle: saline 100 % of control | dose: 75.0 mg/kg/injection, schedule: Q01DX001 (ip), vehicle: saline 90 % of control

CCCCCCCCCCCCCC(=O)OCC(C)C
inactive: dose: 222.0 mg/kg/injection, schedule: Q01DX Z (ip), vehicle: saline 94 % of control | dose: 333.0 mg/kg/injection, schedule: Q01DX Z (ip), vehicle: saline 90 % of control | dose: 500.0 mg/kg/injection, schedule: Q01DX Z (ip), vehicle: saline 94 % of control
